Measured values taken from US9216169B2, “Pharmaceutical composition comprising candesartan or ester thereof and chlortalidone, and use thereof” (TIANJIN INSTITUTE OF PHARMACEUTICAL RESEARCH, priority 2011, dated 2015).

Columns and labels:
[1] = system: Spontaneously hypertensive rats (SHR); test: SBP of SHR by Tail-Cuff method, first administration and continuous administration for 14 days (Examples 8-12); assay type: in vivo, rat; conditions: for AUC0-24h: after first administration
Experimental: Spontaneously hypertensive rats (SHR), male, are provided by Beijing Vital River Laboratory Animal Technology Co., Ltd. The number of animal production license is SCXK (Jing) 2007-0001. Animals are raised in an observation room at the room temperature of 25±2° C. controlled by central air-conditioning system and with artificial lighting of 12 h/day. The animals are raised in separate cages sized 43×27×18 cm with 4 animals for each cage. The rats are free access to water and are fed with block fodder everyday, and the water supply is refreshed once a day. The temperature of the room for measuring the blood pressure is 26±2° C.
The blood pressure is measured by Tail-Cuff method and the hear rate is measured according to the pulse frequency. Animals are pre-trained for the blood pressure measurement for more than 2 weeks so as to adapt to the environment of measurement. Animals are placed in a isothermal bag at 37° C. to be prewarmed for 5 to 10 min for formal measurement. Blood pressures of the rats are measured from tail arteries for 2 to 3 times at rest states, and an average value is taken as each blood pressure measured value. All data are collected and preserved by a computer.
SHRs with systolic blood pressures (SBPs)>190 mmHg are selected for experiment.
Rats are randomly divided into 20 groups according to their blood pressures with each group having 8-10 rats. Animals are fasted overnight and measured for the blood pressure of pre-administration at the day of experiment, and then administered drugs in accordance with the following method:
The single-drug group is intragastrically administered candesartan (Can) or chlorthalidone (Chl), with the dosage of Can of 0.1, 0.2, 0.4 mg/kg respectively and the dosage of Chl of 0.3125, 0.625, 1.25 mg/kg respectively;
According to the clinical single-drug specification, the ratios of Can+Chl are set as follows:
For the ratio of Can:Chl=1:6.25, one dose of 0.1+0.625 mg/kg is set;
For the ratio of Can:Chl=1:3.125, two doses of 0.2+0.625 and 0.4+1.25 mg/kg are set;
For the ratio of Can:Chl=1.28:1, one dose of 0.4+0.3125 mg/kg is set;
For the ratio of Can:Chl=2.56:1, one dose of 0.4+0.15625 mg/kg is set;
The administration volumes are all 5 mL/kg. Rats are continuously administered for 14 days. SBPs are measured 2, 4, 8, 12 and 24 hours after the first administration. On the day of 3, 7, 14 days after administration, the blood pressures are measured before administration and 5 hours after administration. Areas under blood pressure reduction-time curve from 0 to 24 h and from 0 to 14 days (AUC0-24h, AUC0-14d) are calculated.
The calculated results are expressed as mean±standard error ( x±SE); statistical treatment is performed using unpaired t test between groups to compare the significance of the average difference; the interaction between drugs are determined by using factorial analysis of variance, and P<0.05 means the difference has statistical significance.

[2] = clinical studies; cited from earlier work

Which AUC0-14d ([1]; Chl 0.3125 mg/kg i.g. for 14 days) does the source give for `NS(=O)(=O)c1cc(C2(O)NC(=O)c3ccccc32)ccc1Cl` (stereo not shown) [Chl, Chlorthalidone] here?
Its AUC0-14d is −125.9 mmHg · d.

What about the AUC0-24h ([1]; Chl 0.3125 mg/kg i.g.) of the same compound?
Its AUC0-24h is −133.1 mmHg · h.

What about the AUC0-14d ([1]; Chl 0.625 mg/kg i.g. for 14 days) of the same compound?
Its AUC0-14d is −134.5 mmHg · d.

What about the AUC0-24h ([1]; Chl 0.625 mg/kg i.g.) of the same compound?
Its AUC0-24h is −190.4 mmHg · h.

What about the AUC0-14d ([1]; Chl 1.25 mg/kg i.g. for 14 days) of the same compound?
The AUC0-14d was −174.2 mmHg · d.

And the AUC0-24h ([1]; Chl 1.25 mg/kg i.g.)?
The AUC0-24h was −208.1 mmHg · h.

And the “valid control rate of blood pressure” value [2]?
The value was 68.2%.
